Assay results taken from patent US10029986B2, “Alkynyl pyridine-substituted amide compound and pesticide” (NISSAN CHEMICAL INDUSTRIES, LTD., priority 2014, dated 2018).

Assays:
[1] = system: Blumeria graminis f. sp. tritici; assay: Test on the preventive effect against wheat powdery mildew; format: in vivo; conditions: 168 h, test solution A 500 ppm, 5 ml per pot, wheat 1.3-leaf stage, 7 days after inoculation
How it was run: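 Compounds formulated as 20 wt % emulsifiable concentrates and diluted with water to 500 ppm; 5 ml per pot applied to wheat (Norin 61) at the 1.3-leaf stage. Conidia inoculated one day later in a 20° C greenhouse; lesion proportion scored after 7 days as control value, in duplicate.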

Asperaillus niger = assay: Test on the antifungal activity against Asperaillus niger; format: cell-based; conditions: 48 h; test solution B 100 ppm, 10 μl per well, 96 well plate, 25° C. dark, 2 days after treatment; read-out: efficacy (flora area ratio relative to non-treated well)
Experimental: Compounds of the present invention were dissolved in dimethyl sulfoxide to prepare 1 wt % solutions. Then, distilled water was added to dilute the solutions to the prescribed concentration (100 ppm), and the obtained solutions were used in the following the Test Examples 9 to 12. 60 μl of a potato dextrose 1% agar medium was added to each well of a 96 well plate, and 30 μl of sterilized water containing spores of Asperaillus niger (10 spores/3 μl) was added to each well. Further, 10 μl per well of test solution B of the compounds of the present invention was added, and the plate was left at rest at 25° C. under dark conditions. 2 days after treatment, the flora area ratio (%) was determined to calculate the efficacy (%) relative to the non-treated well in accordance with the following formula. Efficacy (%)=[1−(flora area ratio in treated plot/flora area ratio in non-treated well)]×100

[2] = system: Barber pole worm (Haemonchus contortus); assay: Insecticidal test against Barber pole worm (eggs, 96 well plate); format: in vivo; conditions: 96 h, test solution B 100 ppm, 10 μl per well, 25° C. dark, 4 days after treatment, read-out: efficacy (unhatched eggs and inactive larvae relative to non-treated)
Experimental: (§1) Compounds of the present invention were dissolved in dimethyl sulfoxide to prepare 1 wt % solutions. Then, distilled water was added to dilute the solutions to the prescribed concentration (100 ppm), and the obtained solutions were used in the following the Test Examples 9 to 12. 60 μl of a potato dextrose 1% agar medium was added to each well of a 96 well plate, and 30 μl of sterilized water containing eggs of Barber pole worm (Haemonchus contortus) (10 eggs/3 μl) was added to each well. Further, 10 μl per well of test solution B of the compounds of the present invention was added, and the plate was left at rest at 25° C. under dark conditions.

[3] = system: Phaeosphaeria nodorum (Synonym: Septoria nodorum); assay: Test on the preventive effect against wheat glume blotch; format: in vivo; conditions: Parastagonospora nodorum, 144 h; test solution A 500 ppm, 5 ml per pot, wheat 1.3-leaf stage, 2 days inoculation chamber then 6 days at 20° C.
How it was run: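 Wheat (cv. Haruyutaka) at 1.3-leaf stage sprayed with compound at 500 ppm as diluted emulsifiable concentrate, then inoculated one day later with conidial suspension. Kept 2 days at 20° C and 100% RH, then 6 days in a greenhouse at 20° C. Control value derived from lesion proportion on inoculated leaves; duplicate.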

Botrytis cinerea = assay: Test on the preventive effect against cucumber gray mold (mycelium inoculation); format: in vivo; conditions: 48 h, test solution A 500 ppm, 5 ml per pot, cucumber cotyledon, agar block inoculation, 2 days at 20° C.
How it was run: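 Cucumber cotyledons (Sagami Hanjiro) were sprayed with 5 ml per pot of a 500 ppm dilution of a 20 wt % emulsifiable concentrate. Next day, mycelial agar plugs of Botrytis cinerea were placed on cotyledons, held humid at 20° C for 2 days. Lesion proportion gave the control value; duplicate.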

[4] = system: Southern root-knot nematode (Meloidogyne incoqnita); assay: Insecticidal test against Southern root-knot nematode (eggs, 96 well plate); format: in vivo; conditions: 96 h, test solution B 100 ppm, 10 μl per well, 25° C. dark, 4 days after treatment, read-out: efficacy (unhatched eggs + inactive larvae relative to non-treated)
Experimental: as §1, with “Southern root-knot nematode (Meloidogyne incoqnita)” for “Barber pole worm (Haemonchus contortus)”

Structure (SMILES) | pest or weed control at 500 µg/mL [1] [%] | inhibition of growth at 100 µg/mL (Asperaillus niger) [%] | pest or weed control at 100 µg/mL [2] [%] | pest or weed control at 500 µg/mL [3] [%] | pest or weed control at 500 µg/mL (Botrytis cinerea) [%] | pest or weed control at 100 µg/mL [4] [%]
CC(C)(CNC(=O)c1cccnc1C(F)F)c1ncc(C#CC2CC2)cc1Cl [3-007, N-[2-[3-chloro-5-(cyclopropylethynyl)pyridin-2-yl]-2-methylpropyl]-2-(difluoromethyl)nicotinamide] | ≥ 70 | ≥ 50 | ≥ 50 | ≥ 70 | ≥ 70 | ≥ 50
COC(c1ncc(C#CC2CC2)cc1Cl)C(C)NC(=O)c1ccccc1C(F)(F)F (stereo not drawn) [1-024] | ≥ 70 | ≥ 50 | ≥ 50 | ≥ 70 | ≥ 70 | ≥ 50
COC(CNC(=O)c1cn(C)nc1C(F)F)c1ncc(C#CC2CC2)cc1Cl (stereo not drawn) [8-019] | ≥ 70 | ≥ 50 | ≥ 50 | ≥ 70 | ≥ 70 | ≥ 50
O=C(NCC(F)(F)c1ncc(C#CC2CC2)cc1Cl)c1cccnc1C(F)F [3-003, N-[2-[3-chloro-5-(cyclopropylethynyl)pyridin-2-yl]-2,2-difluoroethyl]-2-(difluoromethyl)nicotinamide] | ≥ 70 | ≥ 50 | ≥ 50 | ≥ 70 | ≥ 70 | ≥ 50
O=C(NCCc1ncc(C#CC2CC2)cc1Cl)c1ccccc1C(F)(F)F [1-002] | ≥ 70 | ≥ 50 | ≥ 50 | ≥ 70 | ≥ 70 | ≥ 50
CSC(CNC(=O)c1cccnc1C(F)F)c1ncc(C#CC2CC2)cc1Cl (stereo not drawn) [3-020] | ≥ 70 | ≥ 50 | ≥ 50 | ≥ 70 | ≥ 70 | ≥ 50
Cn1cc(C(=O)NCC(C)(C)c2ncc(C#CC3CC3)cc2Cl)c(C(F)F)n1 [8-008] | ≥ 70 | ≥ 50 | ≥ 50 | ≥ 70 | ≥ 70 | ≥ 50
COC(c1ncc(C#CC2CC2)cc1Cl)C(C)NC(=O)c1cn(C)nc1C(F)F (stereo not drawn) [8-028, N-[2-[3-chloro-5-(cyclopropylethynyl)pyridin-2-yl]-2-methoxy-1-methylethyl]-3-difluoromethyl-1-methyl-1H-pyrazole-4-carboxamide] | ≥ 70 | ≥ 50 | ≥ 50 | ≥ 70 | ≥ 70 | ≥ 50
COC(c1ncc(C#CC2CC2)cc1Cl)C(C)NC(=O)c1sc(C)nc1C(F)F (stereo not drawn) [9-006a] | ≥ 70 | ≥ 50 | ≥ 50 | ≥ 70 | ≥ 70 | ≥ 50
COC(c1ncc(C#CC(C)(C)C)cc1Cl)C(C)NC(=O)c1ccccc1C(F)(F)F (stereo not drawn) [1-025] | ≥ 70 | ≥ 50 | ≥ 50 | ≥ 70 | ≥ 70 | ≥ 50
C=C(CNC(=O)c1cn(C)nc1C(F)F)c1ncc(C#CC2CC2)cc1Cl [8-011, N-[2-[3-chloro-5-(cyclopropylethynyl)pyridin-2-yl]-2-propenyl]-3-difluoromethyl-1-methyl-1H-pyrazole-4-carboxamide] | ≥ 70 | ≥ 50 | ≥ 50 | ≥ 70 | ≥ 70 | ≥ 50
Cn1cc(C(=O)NCC(F)(F)c2ncc(C#CC3CC3)cc2Cl)c(C(F)F)n1 [8-003] | ≥ 70 | ≥ 50 | ≥ 50 | ≥ 70 | ≥ 70 | ≥ 50
O=C(NCC(F)(F)c1ncc(C#CC2CC2)cc1Cl)c1ccccc1C(F)(F)F [1-005] | ≥ 70 | ≥ 50 | ≥ 50 | ≥ 70 | ≥ 70 | ≥ 50
CC(C)(C)C#Cc1cnc(CCNC(=O)c2cccnc2C(F)F)c(Cl)c1 [3-002] | ≥ 70 | ≥ 50 | ≥ 50 | ≥ 70 | ≥ 70 | ≥ 50
COC(c1ncc(C#CC2CC2)cc1Cl)C(C)NC(=O)c1cccnc1C(F)F (stereo not drawn) [3-021] | ≥ 70 | ≥ 50 | ≥ 50 | ≥ 70 | ≥ 70 | ≥ 50
CC(CNC(=O)c1cccnc1Cl)c1ncc(C#CC2CC2)cc1Cl (stereo not drawn) [3-005] | ≥ 70 | ≥ 50 | ≥ 50 | ≥ 70 | ≥ 70 | ≥ 50
CC(C)(C)C#Cc1cnc(CCNC(=O)c2ccccc2C(F)(F)F)c(Cl)c1 [1-003, N-[2-[3-chloro-5-(3,3-dimethyl-1-butynyl)pyridin-2-yl]ethyl]-2-(trifluoromethyl)benzamide] | ≥ 70 | ≥ 50 | ≥ 50 | ≥ 70 | ≥ 70 | ≥ 50
CC(C)(CNC(=O)c1ccccc1C(F)(F)F)c1ncc(C#CC2CC2)cc1Cl [1-008] | ≥ 70 | ≥ 50 | ≥ 50 | ≥ 70 | ≥ 70 | ≥ 50
CC(CNC(=O)c1ccccc1C(F)(F)F)c1ncc(C#CC2CC2)cc1Cl (stereo not drawn) [1-007, N-[2-[3-chloro-5-(cyclopropylethynyl)pyridin-2-yl]propyl]-2-(trifluoromethyl)benzamide] | ≥ 70 | ≥ 50 | ≥ 50 | ≥ 70 | ≥ 70 | ≥ 50
C=C(CNC(=O)c1ccccc1C(F)(F)F)c1ncc(C#CC)cc1Cl [1-012, N-[2-[3-chloro-5-(1-propynyl)pyridin-2-yl]-2-propenyl]-2-(trifluoromethyl)benzamide] | ≥ 70 | ≥ 50 | ≥ 50 | ≥ 70 | ≥ 70 | ≥ 50
CSC(CNC(=O)c1ccccc1C(F)(F)F)c1ncc(C#CC2CC2)cc1Cl (stereo not drawn) [1-021] | ≥ 70 | ≥ 50 | ≥ 50 | ≥ 70 | ≥ 70 | ≥ 50
